Reference: US20230085307A1, “PYRIDAZINONE COMPOUND AND HERBICIDE” (NISSAN CHEMICAL CORPORATION, priority 2019, published 2023)

Tests used:
late watergrass = assay: Test Example 1: herbicidal activity, application before weed generation under submerged conditions (Table 16, symbol A); assay type: in vivo, late watergrass (Echinochloa oryzicola)
How it was run: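 Emulsion formulation, water-diluted to set dose, was put onto the flooded surface (4 cm depth, alluvial soil) the same day weeds were sown and 2.5-leaf rice transplanted. After 3 weeks at 25-30 °C under glass, each species was rated 0 (≤5% kill) to 5 (≥90% kill).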

Japanese bulrush = assay: Test Example 2: herbicidal activity, application during weed generation under submerged conditions (Table 17, symbol B); assay type: in vivo, Japanese bulrush (Schoenoplectus juncoides); settings: application during weed generation, submerged conditions
How it was run: (§1)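 Steps: fill Wagner pots with alluvial soil; add water to give 4 cm depth; sow the species mixed; grow under glass at 25–30° C.; at 1–2 leaves apply water-diluted emulsion formulation to the water surface at a fixed herbicide amount; score after 3 weeks.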

oval-leafed pondweed = assay: Test Example 2: herbicidal activity, application during weed generation under submerged conditions (Table 17, symbol C); assay type: in vivo, oval-leafed pondweed (Monochoria vaginalis); settings: application during weed generation, submerged conditions
How it was run: as §1

southern crabgrass [1] = assay: Test Example 4: herbicidal effect by soil treatment (Table 19, symbol F); assay type: in vivo, southern crabgrass (Digitaria ciliaris)
How it was run: (§2)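 Pre-emergence style soil spray: seeds under ~1.5 cm sterilized diluvial soil received a uniform coat of emulsion diluted to the predetermined herbicide amount. Greenhouse 25–30° C; readout at week three on previously defined criteria.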

green foxtail = assay: Test Example 4: herbicidal effect by soil treatment (Table 19, symbol G); assay type: in vivo, green foxtail (Setaria viridis)
How it was run: as §2

blackgrass = assay: Test Example 4: herbicidal effect by soil treatment (Table 19, symbol J); assay type: in vivo, blackgrass (Alopecurus myosuroides)
How it was run: as §2

Italian ryegrass [2] = assay: Test Example 4: herbicidal effect by soil treatment (Table 19, symbol K); assay type: in vivo, Italian ryegrass (Lolium multiflorum)
How it was run: as §2

redroot pigweed [3] = assay: Test Example 4: herbicidal effect by soil treatment (Table 19, symbol N); assay type: in vivo, redroot pigweed (Amaranthus retroflexus)
How it was run: as §2

chickweed = assay: Test Example 4: herbicidal effect by soil treatment (Table 19, symbol P); assay type: in vivo, common chickweed (Stellaria media)
How it was run: as §2

persian speedwell [4] = assay: Test Example 4: herbicidal effect by soil treatment (Table 19, symbol R); assay type: in vivo, Persian speedwell (Veronica persica)
How it was run: as §2

southern crabgrass [5] = assay: Test Example 5: herbicidal effect by foliage application, plastic box (Table 20, symbol F); assay type: in vivo, southern crabgrass (Digitaria ciliaris); settings: foliage application, three weeks after application
How it was run: (§3)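 Plants were sown into sterilized diluvial soil under about 1.5 cm cover and kept in a greenhouse at 25° C. to 30° C. Fourteen days on, foliage received an even spray of the diluted emulsion. Herbicidal or crop effect was judged three weeks afterwards.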

barnyard grass = assay: Test Example 5: herbicidal effect by foliage application, plastic box (Table 20, symbol H); assay type: in vivo, barnyard grass (Echinochloa crus-galli); settings: foliage application, three weeks after application
How it was run: as §3

Italian ryegrass [6] = assay: Test Example 5: herbicidal effect by foliage application, plastic box (Table 20, symbol K); assay type: in vivo, Italian ryegrass (Lolium multiflorum); settings: foliage application, three weeks after application
How it was run: as §3

redroot pigweed [7] = assay: Test Example 5: herbicidal effect by foliage application, plastic box (Table 20, symbol N); assay type: in vivo, redroot pigweed (Amaranthus retroflexus); settings: foliage application, three weeks after application
How it was run: as §3

lambsquarters = assay: Test Example 5: herbicidal effect by foliage application, plastic box (Table 20, symbol O); assay type: in vivo, lambsquarters (Chenopodium album); settings: foliage application, three weeks after application
How it was run: as §3

persian speedwell [8] = assay: Test Example 5: herbicidal effect by foliage application, plastic box (Table 20, symbol R); assay type: in vivo, Persian speedwell (Veronica persica); settings: foliage application, three weeks after application
How it was run: as §3

Cc1nn(C)c(=O)c(-c2c(-c3ccc(OCC4CC4)cc3)sc3ccccc23)c1O [1-142]
Herbicidal effect on A: late watergrass (grade 0-5) (late watergrass; 320 g/ha applied herbicide): 3 (Herbicidal rate of 40% or more and less than 70%)
herbicidal effect rating, B: Japanese bulrush (Japanese bulrush; AAH 320 g/ha): 2 (Herbicidal rate of 20% or more and less than 40%)
herbicidal effect rating, C: oval-leafed pondweed (oval-leafed pondweed; AAH 320 g/ha): 0 (Herbicidal rate of 5% or less (almost no effect))
F: southern crabgrass, herbicidal effect rating (southern crabgrass [1]; AAH 320 g/ha): 0 (Herbicidal rate of 5% or less (almost no effect))
G: green foxtail, herbicidal effect rating (green foxtail; AAH 320 g/ha): 0 (Herbicidal rate of 5% or less (almost no effect))
J: blackgrass, herbicidal effect rating (blackgrass; AAH 320 g/ha): 0 (Herbicidal rate of 5% or less (almost no effect))
K: Italian ryegrass, herbicidal effect rating (Italian ryegrass [2]; AAH 320 g/ha): 0 (Herbicidal rate of 5% or less (almost no effect))
N: redroot pigweed, herbicidal effect rating (redroot pigweed [3]; AAH 320 g/ha): 4 (Herbicidal rate of 70% or more and less than 90%)
P: chickweed, herbicidal effect rating (chickweed; AAH 320 g/ha): 2 (Herbicidal rate of 20% or more and less than 40%)
R: persian speedwell, herbicidal effect rating (persian speedwell [4]; AAH 320 g/ha): 5 (Herbicidal rate of 90% or more (almost completely withered))
F: southern crabgrass, herbicidal effect (southern crabgrass [5]; AAH 320 g/ha): 1 (Herbicidal rate of 5% or more and less than 20%)
H: barnyard grass, herbicidal effect (barnyard grass; AAH 320 g/ha): 3 (Herbicidal rate of 40% or more and less than 70%)
K: Italian ryegrass, herbicidal effect (Italian ryegrass [6]; AAH 320 g/ha): 0 (Herbicidal rate of 5% or less (almost no effect))
N: redroot pigweed, herbicidal effect (redroot pigweed [7]; AAH 320 g/ha): 2 (Herbicidal rate of 20% or more and less than 40%)
O: lambsquarters, herbicidal effect (lambsquarters; AAH 320 g/ha): 3 (Herbicidal rate of 40% or more and less than 70%)
R: persian speedwell, herbicidal effect (persian speedwell [8]; AAH 320 g/ha): 5 (Herbicidal rate of 90% or more (almost completely withered))

COCCOc1ccc(-c2sc3ccccc3c2-c2c(O)c(C)nn(C)c2=O)cc1 [1-148]
Herbicidal effect on A: late watergrass (grade 0-5) (late watergrass; 368 g/ha applied herbicide): 3 (Herbicidal rate of 40% or more and less than 70%)
herbicidal effect rating, B: Japanese bulrush (Japanese bulrush; AAH 368 g/ha): 3 (Herbicidal rate of 40% or more and less than 70%)
herbicidal effect rating, C: oval-leafed pondweed (oval-leafed pondweed; AAH 368 g/ha): 1 (Herbicidal rate of 5% or more and less than 20%)
F: southern crabgrass, herbicidal effect rating (southern crabgrass [1]; AAH 368 g/ha): 4 (Herbicidal rate of 70% or more and less than 90%)
G: green foxtail, herbicidal effect rating (green foxtail; AAH 368 g/ha): 5 (Herbicidal rate of 90% or more (almost completely withered))
J: blackgrass, herbicidal effect rating (blackgrass; AAH 368 g/ha): 1 (Herbicidal rate of 5% or more and less than 20%)
K: Italian ryegrass, herbicidal effect rating (Italian ryegrass [2]; AAH 368 g/ha): 5 (Herbicidal rate of 90% or more (almost completely withered))
N: redroot pigweed, herbicidal effect rating (redroot pigweed [3]; AAH 368 g/ha): 5 (Herbicidal rate of 90% or more (almost completely withered))
P: chickweed, herbicidal effect rating (chickweed; AAH 368 g/ha): 5 (Herbicidal rate of 90% or more (almost completely withered))
R: persian speedwell, herbicidal effect rating (persian speedwell [4]; AAH 368 g/ha): 5 (Herbicidal rate of 90% or more (almost completely withered))
F: southern crabgrass, herbicidal effect (southern crabgrass [5]; AAH 368 g/ha): 5 (Herbicidal rate of 90% or more (almost completely withered))
H: barnyard grass, herbicidal effect (barnyard grass; AAH 368 g/ha): 5 (Herbicidal rate of 90% or more (almost completely withered))
K: Italian ryegrass, herbicidal effect (Italian ryegrass [6]; AAH 368 g/ha): 5 (Herbicidal rate of 90% or more (almost completely withered))
N: redroot pigweed, herbicidal effect (redroot pigweed [7]; AAH 368 g/ha): 5 (Herbicidal rate of 90% or more (almost completely withered))
O: lambsquarters, herbicidal effect (lambsquarters; AAH 368 g/ha): 5 (Herbicidal rate of 90% or more (almost completely withered))
R: persian speedwell, herbicidal effect (persian speedwell [8]; AAH 368 g/ha): 5 (Herbicidal rate of 90% or more (almost completely withered))
